Source: patent US11034672B1, “Tyrosine kinase inhibitor compositions, methods of making and methods of use” (Black Diamond Therapeutics, Inc., priority 2018, dated 2021)

Tested on: HER2 S310F
Test: Tumor pHER2/pERK AlphaLisa in mice bearing HER2 S310F BaF3 tumors (Examples 15-18)
Assay type: in vivo
Settings: two day acute oral dosing, 15 mg/kg; at peak plasma levels
Description: (§1) Following the second dose, tumors were collected at 2 hours, 5 hours, 12 hours and 24 hours, and analyzed for both pHER2 activity and pERK activity via AlphaLisa. Plasma was also collected at these time points and analayzed for the presence of Compound No. 21 to determine pharmacokinetic profile. The tumor tissue was cut and homogenized using the Precellys Soft Tissue Homogenizing kit (KT03961-1-00.3.2) containing T-PER tissue protein extraction reagent (Thermo Scientific #78510), supplemented with Protease Inhibitor (Sigma P8340), and Phosphatase Inhibitors II and III (Sigma P5726 and P0044). Tissue samples were homogenized in the Precellys machine by spinning two times for one minute each. Sample tubes were centrifuged for 5 min at 15,000 rpm at 4° C. The supernatant was transferred to a fresh microtube and spun again for 5 minutes at 15,000 rpm at 4° C. Supernatant was then transferred to a fresh microtube and placed on ice. The protein concentration of the supernatant was measured using the BCA reagent Kit (Thermo Scientific #23225). Tumor tissue-derived lysates were analyzed for either HER2 activity or EGFR activity by detection of pHER2 (Tyr1221/1222) or pERK (Thr202/Tyr204) phosphosites, respectively, via AlphaLisa. Briefly, tumor Lysates were diluted to 0.5 ug/ul in 1× diluted SureFire Ultra Kit Lysis Buffer (5× supplied stock) supplemented with Protease Inhibitor (Sigma P8340) and Phosphatase Inhibitor II and III (Sigma P5726 and P0044). 10 ul of total tumor lysate was added per well in triplicate to a 384-well Opti-plate (Perkin Elmer #6007290). Activation Buffer was diluted 25-fold in combined Reaction Buffer 1 and Reaction Buffer 2, and acceptor beads were diluted 50-fold in the combined Reaction Buffers. 5 ul/well of the Acceptor bead:Reaction buffer mixture was added to each well.
as §1, with “No. 5” for “No. 21”, “Buffer (X” for “Buffer (5×”
To determine the ability of Compound No. 118 to inhibit tumor growth and induce tumor regression in vivo, a mouse tumor model containing the HER2 S310F mutation was used. Athymic nude mice from Charles River Labs bearing HER2 S310F BaF3 tumors were treated with two day acute oral dosing of Compound No. 118 at 15 mg/kg. […]

Structure (SMILES) | pERK1/2 (Thr202/Tyr204) in tumors | pHER2 (Tyr1221/1222) in tumors
CC#CC(=O)Nc1cc2c(Nc3ccc(OCc4ccccn4)c(Cl)c3)ncnc2cc1OCCN1CCOCC1 [compound 5] | reduction | reduction
C=CC(=O)Nc1cc2c(Nc3ccc(OCc4ccccn4)c(Cl)c3)ncnc2cc1OCCCN1CCOCC1 [compound 21] | near complete reduction | near complete reduction
